Tested on: P-2 mediated bacterial killing
Test: Perforin-2 mediated killing of MRSA by BV2 phagocytic cells in vitro (FIG. 14c)
Conditions: phagocytic cell BV2, in vitro, listed as MLN4294

SMILES: NS(=O)(=O)OC[C@@H]1CC(n2ccc3c(N[C@H]4CCc5ccccc54)ncnc32)C[C@@H]1O (stereo partly shown) [MLN 4924]
- P-2 mediated bacterial killing: blocked

Reference: patent publication US20160250303A1, “PERFORIN-2 ACTIVATORS AND INHIBITORS AS DRUG TARGETS FOR INFECTIOUS DISEASE AND GUT INFLAMMATION” (UNIVERSITY OF MIAMI, priority 2013, published 2016)
